{"source": "patent US12295997B2", "about": "“Prostate neoantigens and their uses” (Janssen Biotech, Inc., priority 2020, dated 2025)", "key": {"[1]": {"tested_on": "CD8+ and CD4+ T cells (autologous CD3+ Pan-T cells isolated from human normal PBMCs)", "experiment": "Exogenous autologous normal donor restimulation assay (15-mer overlapping peptide pools on CD1c+ dendritic cells, TNFα/IFNγ flow cytometry)", "format": "cell-based", "details": "Table 25, 15-mer overlapping peptide pool", "summary_of_the_method": "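Autologous CD3+ Pan-T cells from normal donors were co-cultured 12 days with irradiated CD1c+ DCs pulsed with 15-mer overlapping neoantigen peptide pools at 2.5–10 μg/mL, with IL-15 and IL-2 support. Cells were restimulated on day 11, then TNFα/IFNγ double-positive CD8+ and CD4+ frequencies read by flow. Positive means ≥3-fold over DMSO and ≥0.01%.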"}, "[2]": {"tested_on": "CD8+ and CD4+ T cells (autologous CD3+ Pan-T cells isolated from human normal PBMCs)", "experiment": "Endogenous autologous normal donor restimulation assay (Ad5-transduced CD1c+ dendritic cells, TNFα/IFNγ flow cytometry)", "format": "cell-based", "details": "Table 27, endogenous expression, peptide pool restimulation, highest across sixteen normal donors", "description": "CD1c+ Dendritic Cells (DC) isolated from human normal PBMCs were thawed using media (IMDM (Gibco) supplemented with glutamine, HEPES, 5% human serum (Sigma), and 1×Pen-Strep). DC cells were resuspended in media supplemented with IL-4 (Peprotech, 80 ng/mL) and GM-CSF (Gibco, 80 ng/mL), plated in 6 well microplates, and rested overnight at 37° C. (5% CO2). The following day, DC cells were counted and plated in a 96 well round bottom microplate at a concentration of 30,000 viable cells per well. Ad5 vectors (Vector Biolabs) were dilute in media to an MOI (Multiplicity Of Infection) of 5000 based on Plaque Forming Units. Ad5 vectors for the CEF pool and a “null” were used as controls. DCs were transduced with Ad5 vectors overnight at 37° C. (5% CO2). The following day, the Ad5 vectors were washed off the plate by three sequential centrifugation/aspiration steps using sterile Phosphate Buffered Saline. After the final wash, transduced DCs were resuspended in 100 μL media. Autologous CD3+ Pan-T cells isolated from human normal PBMCs were thawed using media. Pan-T cells were added to the irradiated DCs at 300,000 viable cells per well (100 μL/well). Human IL-15 (Peprotech) was added to all wells at final concentration of 10 ng/mL.\nPlates were incubated at 37° C. (5% CO2) for a total of 12 days. Media was refreshed every 2-3 days with IL-15 (10 ng/mL final concentration) and IL-2 (R&D systems, 10 IU/mL final concentration). On day 11 lyophilized peptides (15-mer overlapping peptides) were solubilized in 100% DMSO and pooled by neoantigen to between 5 mg/mL and 20 mg/mL. Neoantigen peptides pools were added to cells for a final concentration of 2.5 μg/mL to 10 μg/mL. CEF Peptide Pool “Plus” (Cellular Technologies, Ltd.) was utilized as a positive control and DMSO at the same final concentration as the experimental peptides was utilized as a negative control. Protein Inhibitor Cocktail (eBioscience) was added to every well and plate was incubated overnight at 37° C. (5% CO2).\nOn day 12, cells were stained for intracellular flow cytometry analysis. The cells were washed with PBS and stained with Live/Dead Fixable Aqua Dead Cell stain (Thermo-Fisher). Following the live/dead stain, cells were blocked using Biotin-Free Fc Receptor Blocker (Accurate Chemical & Scientific Corp). Extracellular cellular flow panel ([…] per well in 50 μL) consisted of CD3 PerCP-Cy5.5 (Biolegend), CD4 BV421 (Biolegend), and CD8 APC-Cy7 (Biolegend). After extracellular staining, cells were fixed using Foxp3/fTranscription Factor Staining Buffer Set (eBioscience) and stained for intracellular proteins (1:50 dilution) using TNFα FITC (R&D Systems) and IFNγ BV785 (Biolegend). Cells were washed and resuspended in stain buffer and analyzed using a BD Celesta flow cytometer.\nFlow cytometry cell staining analysis was completed using FlowJo v10. Cells were gated on live, singlet, CD3+ cells. The CD8+ and CD4+ T cells were analyzed for TNFα/IFNγ expression and the frequency of double positive TNFα/IFNγ CD8+ and the frequency of double positive TNFα/IFNγ CD4+ T cells were recorded. Responses were assessed to be positive when the frequency of double positive TNFα/IFNγ CD8+ or TNFα/IFNγ CD4+ T cells due to stimulation with an experimental peptide pool was increased greater than or equal to 3-fold over the DMSO only negative control for that donor and at least 0.01%.\nFor three of the neoantigens, an Ad5 vector was designed to transduce normal Dendritic cells with the neoantigens. This assay assessed the ability of the endogenously expressed and presented neoantigens to activate autologous T cells following overlapping 15-mer peptide pools restimulation using the endogenous autologous normal donor restimulation assay described in Example 1 utilizing TNFα and IFNγ production by CD8^+ and CD4^+ T cells as a readout. […] Sixteen donors were used to assess endogenous immunogenicity."}, "[3]": {"details": "highest frequency across normal donors"}}}
{"sequence": "WKFEMSYTVGGPPPHVHARPRHWKTDR (listed as Homo sapiens) [AS18, NWD1 alternative splicing]", "values": [{"measurement": "Maximum Fold Change Over Background CD4+ cells", "setting": "[1]; TNFα+IFNγ+ CD4+ T cells, highest fold change over negative control across normal donors", "value": 7.51}, {"measurement": "Maximum Fold Change Over Background CD8+ cells", "setting": "[1]; TNFα+IFNγ+ CD8+ T cells, highest fold change over negative control across normal donors", "value": 9.17}, {"measurement": "Maximum Frequency of TNFα/IFNγ Double Positive CD4+ T cells", "setting": "[1]; [3]", "value": 0.053}, {"measurement": "Maximum Frequency of TNFα/IFNγ Double Positive CD8+ T cells", "setting": "[1]; [3]", "value": 0.110}, {"measurement": "Maximum Fold Change Over Background CD4+ cells", "setting": "[2]", "value": 1.90}, {"measurement": "Maximum Fold Change Over Background CD8+ cells", "setting": "[2]", "value": 4.09}, {"measurement": "Maximum Frequency of TNFα/IFNγ Double Positive CD4+ T cells", "setting": "[2]", "value": 0.046}, {"measurement": "Maximum Frequency of TNFα/IFNγ Double Positive CD8+ T cells", "setting": "[2]", "value": 0.36}]}
